US20080254993A1, “Use of abscisic acid analogs to enhance growth control” (priority 2007, published 2008)

Key:
tomato [1] = experiment: Tomato leaf transpiration, greenhouse, porometer (Example 5); type: in vivo, Tomato (variety: Rutgers)
Text: (§1) The effect of ABA analog (PBI-429) and trinexapac-ethyl combinations on transpiration and growth inhibition of dicotyledonous (tomato) was also examined in the greenhouse condition. Tomato (variety: Rutgers) seeds were sown in 18-cell flat filled with Promix PGX (available from Premier Horticulture Inc. Quakertown, Pa.) and grown for 3 weeks to allow for germination and initial growth. Plants were then transplanted into pots (18 cm in diameter and 18 cm in height), filled with Promix BX (available from Premier Horticulture Inc. Quakertown, Pa.), and grown for one week before the chemical treatment. Plants received daily irrigation and weekly fertilizer (1 g/L all purpose fertilizer 20-20-20, available from The Scotts Company, Marysville, Ohio). During the chemical treatment, a 24 mL (4 mL/plant) solution was foliar sprayed on the tomato canopy. Leaf transpiration rates were measured using a LI-1600 Steady State Porometer (LI-Cor, Lincoln, Nebr.) at 3, 5, 7, 10, and 14 days after treatment. The leaf transpiration rate was normalized to the percentage of control plant to minimize the experimental errors caused by environmental factors. Plant height was measured at 0, 3, 5, 7, 10 and 14 days after treatment. The growth rate was calculated based on the changes of plant height in certain intervals. The plants were harvested and the leaf number was counted at 14 days after treatment.

Kentucky bluegrass = experiment: Greenhouse study on Kentucky bluegrass: turfgrass height, clip weight, turfgrass quality (Example 1); type: in vivo
Description: Greenhouse studies were conducted at the Research Farm of Valent BioSciences Corporation (Long Grove, Ill.). Grasses were grown in pots (18 cm in diameter and 18 cm in height) filled with Promix BX (available from Premier Horticulture Inc. Quakertown, Pa.). Grass was irrigated daily by an overhead irrigation system. The irrigation system was set up with multiple Tornado Mist Spray Heads (10 GPH at 40 PSI-Wetted diameter, NDS/Raindrip, Woodland Hills, Calif.). Spray heads were 1-meter apart from each other and 75 cm above grass canopy. Grass was cut with a scissor at 2.5 cm height and fertilizer (1 g/L all purpose fertilizer 20-20-20, available from The Scotts Company, Marysville, Ohio) was applied once per week.
Chemical solutions were prepared with distilled water. Tween 20 (0.05% v/v) was used as the surfactant when necessary. Trinexapac-ethyl (commercial product Primo Maxx, 11.3% active ingredient) was purchased from Syngenta Crop Protection Inc. (Greensboro, N.C.). ABA analogs, 8′ acetylene-ABA, acid (PBI-524), 8′ acetylene-ABA, ester (PBI-429), 8′ cyclopropane ester (PBI-696), or Tetralone, first carbon tail acetylene, ester (PBI-702), were obtained from Plant Biotechnology Institute, National Research Council of Canada (Saskatoon, Saskatchewan, Canada).
Chemical solutions were foliar applied to the turfgrass canopy at the rate of 4-gallons/1000 square foot (or 0.163 L/m^−2) immediately after finishing the preparation of solutions. After treatment, turfgrasses were arranged in a randomized complete block experimental design. Turfgrass quality, turfgrass height or clip fresh weight was measured on assigned dates. Turfgrass quality was visually rated on a 0-9 scale based on the color, uniformity, and density of the grass with 0 as the worst and 9 as the best. Turfgrass height was measured as the distance between canopy surface and soil. Clippings were collected form each plot; all plots were cut to a uniform height.
All experiments were randomized complete block experimental design. Data were analyzed by analysis of variance. Duncan's new multiple range tests at α=0.05 were used for mean separations.
Kentucky bluegrass sod was purchased from Deak sod farms, Inc. (Union Grove, Wis.). Grass was grown in the greenhouse for 94 days for establishment. Turfgrass was treated with one time foliar application of 50 ppm PBI-524, PBI-429, PBI-696 or PBI-702 alone or in combination with 250 ppm trinexapac-ethyl. The turfgrass was cut every 7 days. Turfgrass quality, turfgrass height, and clip weight were measured on days 7 and 35 after treatment.

tomato [2] = experiment: Tomato plant height, growth rate and leaf number, greenhouse (Example 5); type: in vivo, Tomato (variety: Rutgers)
Text: as §1

[3] = 25 ppm PBI-429, 3 days after treatment
[4] = 25 ppm PBI-429, 5 days after treatment
[5] = 25 ppm PBI-429, 7 days after treatment
[6] = 25 ppm PBI-429, 10 days after treatment
[7] = 25 ppm PBI-429, 14 days after treatment
[8] = 50 ppm PBI-429, 3 days after treatment
[9] = 50 ppm PBI-429, 5 days after treatment
[10] = 50 ppm PBI-429, 7 days after treatment
[11] = 50 ppm PBI-429, 10 days after treatment
[12] = 50 ppm PBI-429, 14 days after treatment
[13] = 100 ppm PBI-429, 3 days after treatment
[14] = 100 ppm PBI-429, 5 days after treatment
[15] = 100 ppm PBI-429, 7 days after treatment
[16] = 100 ppm PBI-429, 10 days after treatment
[17] = 100 ppm PBI-429, 14 days after treatment
[18] = 200 ppm PBI-429, 3 days after treatment
[19] = 200 ppm PBI-429, 5 days after treatment
[20] = 200 ppm PBI-429, 7 days after treatment
[21] = 200 ppm PBI-429, 10 days after treatment
[22] = 200 ppm PBI-429, 14 days after treatment
[23] = 7 days after treatment, 50 ppm ABA analog alone
[24] = 35 days after treatment, 50 ppm ABA analog alone
[25] = PBI-429 25-200 ppm, trinexapac-ethyl 250-2000 ppm, alone or combined

For `C#CC1(C)CC(=O)C=C(C)C1(O)/C=C/C(C)=C\C(=O)OC` (stereo not shown) [PBI-429, 8′ acetylene-ABA, ester], the Transpiration (tomato [1]; [3]) was 53 % of control, the Transpiration (tomato [1]; [4]) was 61 % of control and the Transpiration (tomato [1]; [5]) was 75 % of control. The Transpiration (tomato [1]; [6]) was 80 % of control, the Transpiration (tomato [1]; [7]) was 103 % of control and the Transpiration (tomato [1]; [8]) was 36 % of control. For the same compound, the Transpiration (tomato [1]; [9]) was 32 % of control, the Transpiration (tomato [1]; [10]) was 42 % of control and the Transpiration (tomato [1]; [11]) was 69 % of control. The Transpiration (tomato [1]; [12]) was 99 % of control, the Transpiration (tomato [1]; [13]) was 34 % of control and the Transpiration (tomato [1]; [14]) was 29 % of control. The Transpiration (tomato [1]; [15]) was 38 % of control, the Transpiration (tomato [1]; [16]) was 55 % of control and the Transpiration (tomato [1]; [17]) was 98 % of control. For the same compound, the Transpiration (tomato [1]; [18]) was 26 % of control, the Transpiration (tomato [1]; [19]) was 24 % of control and the Transpiration (tomato [1]; [20]) was 28 % of control. The Transpiration (tomato [1]; [21]) was 34 % of control, the Transpiration (tomato [1]; [22]) was 71 % of control and the “Tomato leaf transpiration (in words)” value (tomato [1]; PBI-429 25-200 ppm, trinexapac-ethyl 250-2000 ppm, alone or combined, 3-14 days after treatment) was “inhibited tomato leaf transpiration”. The “Clip Weight” value (Kentucky bluegrass; [23]) was 0.4 g, the Turfgrass height (Kentucky bluegrass; [23]) was 5.8 cm and the Turfgrass quality (Kentucky bluegrass; 7 days after treatment, 50 ppm ABA analog alone, visual 0-9 scale, 9 best) was 6.6. For the same compound, the “Turfgrass height and clip weight compared to the control (in words)” value (Kentucky bluegrass; 7 days after treatment, trinexapac-ethyl 250 ppm, PBI-524 or PBI-429 50 ppm, alone or combined) was “reduced turfgrass height and clip weight compared to the control”, the “Clip Weight” value (Kentucky bluegrass; [24]) was 2.3 g and the Turfgrass height (Kentucky bluegrass; [24]) was 8.1 cm. The “Turfgrass height and clip weight (in words)” value (Kentucky bluegrass; [24]) was “no longer reduced turfgrass height and clip weight”, the Plant height (tomato [2]; 25 ppm PBI-429, 0 days after treatment) was 6.3 cm and the Growth rate (tomato [2]; [3]) was 0.8 cm/day. It also gave a Plant height (tomato [2]; [3]) of 8.6 cm, a Growth rate (tomato [2]; [4]) of 0.9 cm/day and a Plant height (tomato [2]; [4]) of 10.4 cm. The Growth rate (tomato [2]; [5]) was 1.2 cm/day, the Plant height (tomato [2]; [5]) was 12.8 cm and the Growth rate (tomato [2]; [6]) was 1.1 cm/day. For the same compound, the Plant height (tomato [2]; [6]) was 16.0 cm, the Growth rate (tomato [2]; [7]) was 1.2 cm/day and the Leaf number (tomato [2]; [7]) was 11.0. It also gave a Plant height (tomato [2]; [7]) of 20.7 cm, a Plant height (tomato [2]; 50 ppm PBI-429, 0 days after treatment) of 6.3 cm and a Growth rate (tomato [2]; [8]) of 0.6 cm/day. The Plant height (tomato [2]; [8]) was 8.8 cm, the Growth rate (tomato [2]; [9]) was 0.6 cm/day and the Plant height (tomato [2]; [9]) was 10.0 cm. For the same compound, the Growth rate (tomato [2]; [10]) was 0.8 cm/day, the Plant height (tomato [2]; [10]) was 11.6 cm and the Growth rate (tomato [2]; [11]) was 0.8 cm/day. The Plant height (tomato [2]; [11]) was 13.9 cm, the Growth rate (tomato [2]; [12]) was 1.1 cm/day and the Leaf number (tomato [2]; [12]) was 11.0. It also gave a Plant height (tomato [2]; [12]) of 18.2 cm, a Plant height (tomato [2]; 100 ppm PBI-429, 0 days after treatment) of 6.3 cm and a Growth rate (tomato [2]; [13]) of 0.6 cm/day. It also gave a Plant height (tomato [2]; [13]) of 8.4 cm, a Growth rate (tomato [2]; [14]) of 0.5 cm/day and a Plant height (tomato [2]; [14]) of 9.4 cm. For the same compound, the Growth rate (tomato [2]; [15]) was 0.7 cm/day, the Plant height (tomato [2]; [15]) was 10.8 cm and the Growth rate (tomato [2]; [16]) was 0.7 cm/day. It also gave a Plant height (tomato [2]; [16]) of 12.8 cm, a Growth rate (tomato [2]; [17]) of 0.9 cm/day and a Leaf number (tomato [2]; [17]) of 10.8. The Plant height (tomato [2]; [17]) was 16.2 cm, the Plant height (tomato [2]; 200 ppm PBI-429, 0 days after treatment) was 6.4 cm and the Growth rate (tomato [2]; [18]) was 0.5 cm/day. It also gave a Plant height (tomato [2]; [18]) of 7.9 cm, a Growth rate (tomato [2]; [19]) of 0.4 cm/day and a Plant height (tomato [2]; [19]) of 8.7 cm. The Growth rate (tomato [2]; [20]) was 0.5 cm/day, the Plant height (tomato [2]; [20]) was 9.6 cm and the Growth rate (tomato [2]; [21]) was 0.4 cm/day. For the same compound, the Plant height (tomato [2]; [21]) was 10.9 cm, the Growth rate (tomato [2]; [22]) was 0.7 cm/day and the Leaf number (tomato [2]; [22]) was 10.5. For the same compound, the Plant height (tomato [2]; [22]) was 13.8 cm, the “Tomato leaf number (in words)” value (tomato [2]; 14 days after treatment, PBI-429 25-200 ppm, trinexapac-ethyl 250-2000 ppm, alone or combined) was “only significantly reduced leaf number at the highest rate” and the “Tomato growth rate in terms of plant height (in words)” value (tomato [2]; [25]) was “decreased tomato growth rate”. For the same compound, the “Tomato plant height (in words)” value (tomato [2]; [25]) was “decreased tomato plant height”.
